Assay results as given in PMC5007552, “The hVps34‐SGK3 pathway alleviates sustained PI3K/Akt inhibition by stimulating mTORC1 and tumour growth” (The EMBO Journal, 2016).
“And” between values parts separate entries of the source, which are not always exact repeats. Equal entries are not always repeated.

System: ZR-75-1 cells
Assay: NanoString human kinome mRNA quantification
Type: cell-based
Excerpt: Human mRNAs were hybridised to NanoString human kinome and control code sets, then subjected to quantification using NanoString software. […] To permit data compaction, and simple kinome‐wide comparisons, the fold changes are log2 transformed. […] Cell pellets were resuspended at a concentration of ~6,500 cells/μl in RLT buffer (Qiagen). […] For total copy numbers, triplicate normalised count values were averaged, and to calculate fold induction, means were divided by triplicate mean values from matched DMSO controls. P‐values were calculated using unpaired t‐test (GraphPad Prism software) by employing treated and control count data for each kinase mRNA.

SMILES: NC1(c2ccc(-c3nc4ccn5c(=O)[nH]nc5c4cc3-c3ccccc3)cc2)CCC1 [MK-2206]
- Normalised counts (EGFR mRNA, single replicates): 75.1 and 79.82 and 79.29
- Average normalised counts (EIF2AK1 mRNA): 3890.11
- Normalised counts (EIF2AK1 mRNA, single replicates): 3762.77 and 3749.38 and 4158.18
- Average normalised counts (EIF2AK2 mRNA): 387.137
- Normalised counts (EIF2AK2 mRNA, single replicates): 351.43 and 373.45 and 436.53
- Average normalised counts (EIF2AK3 mRNA): 167.45
- Normalised counts (EIF2AK3 mRNA, single replicates): 158.73 and 166.69 and 176.93
- Average normalised counts (EIF2AK4 mRNA): 999.56
- Normalised counts (EIF2AK4 mRNA, single replicates): 986.79 and 999.81 and 1012.08
- Average normalised counts (EPHA1 mRNA): 298.103
- Normalised counts (EPHA1 mRNA, single replicates): 293.25 and 307.43 and 293.63
- Average normalised counts (EPHA2 mRNA): 98.1433
- Normalised counts (EPHA2 mRNA, single replicates): 101.46 and 85.9 and 107.07
- Average normalised counts (EPHA3 mRNA): 1
- Normalised counts (EPHA3 mRNA, single replicates): 1
- Average normalised counts (EPHA4 mRNA): 54.0467
- Normalised counts (EPHA4 mRNA, single replicates): 47.83 and 66.78 and 47.53
- Average normalised counts (EPHA5 mRNA): 2.657
- Normalised counts (EPHA5 mRNA, single replicates): 2.39 and 2.5 and 3.08
- Average normalised counts (EPHA6 mRNA): 46.39
- Normalised counts (EPHA6 mRNA, single replicates): 39.65 and 42.46 and 57.06
- Average normalised counts (EPHA7 mRNA): 9.993
- Normalised counts (EPHA7 mRNA, single replicates): 14.2 and 10.32 and 5.46
- Average normalised counts (EPHA8 mRNA): 2.44
- Normalised counts (EPHA8 mRNA, single replicates): 4.2 and 1.63 and 1.49
- Average normalised counts (EPHA10 mRNA): 29.9233
- Normalised counts (EPHA10 mRNA, single replicates): 36.93 and 25.95 and 26.89
- Average normalised counts (EPHB1 mRNA): 2.73
- Normalised counts (EPHB1 mRNA, single replicates): 4.2 and 2.5
- Average normalised counts (EPHB2 mRNA): 16.0233
- Average normalised counts (EPHB3 mRNA): 206.547
- Average normalised counts (EPHB4 mRNA): 1166.85
- Average normalised counts (EPHB6 mRNA): 2.217
- Average normalised counts (ERBB2 mRNA): 3923.04
- Average normalised counts (ERBB3 mRNA): 1260.11
- Average normalised counts (ERBB4 mRNA): 408.193
- Average normalised counts (ERN1 mRNA): 386.247
- Average normalised counts (ERN2 mRNA): 2.483
- Average normalised counts (FASTK mRNA): 67.2133
- Average normalised counts (FASTKD1 mRNA): 614.733
- Average normalised counts (FASTKD2 mRNA): 563.933
- Average normalised counts (FASTKD3 mRNA): 173.083
- Average normalised counts (FASTKD5 mRNA): 437.597
- Average normalised counts (FER mRNA): 455.723
- Average normalised counts (FES mRNA): 1.427
- Average normalised counts (FGFR1 mRNA): 1112.53
- Average normalised counts (FGFR2 mRNA): 189.803
- Average normalised counts (FGFR3 mRNA): 1392.79
- Average normalised counts (FGFR4 mRNA): 1462.07
- Average normalised counts (FGFRL1 mRNA): 1225.18
- Average normalised counts (FGR mRNA): 1
- Average normalised counts FLJ25006 (FLJ25006 mRNA, average of 3 replicates): 106.973
- Normalised counts FLJ25006 (FLJ25006 mRNA, single replicates): 105.1 and 102.4 and 113.42
- Average normalised counts FLT1 (FLT1 mRNA, average of 3 replicates): 1
- Normalised counts FLT1 (FLT1 mRNA, single replicates): 1
- Average normalised counts FLT3 (FLT3 mRNA, average of 3 replicates): 149.337
- Normalised counts FLT3 (FLT3 mRNA, single replicates): 146.91 and 161.48 and 139.62
- Average normalised counts FLT4 (FLT4 mRNA, average of 3 replicates): 1.957
- Normalised counts FLT4 (FLT4 mRNA, single replicates): 1 (2×) and 3.87
- Average normalised counts FRK (FRK mRNA, average of 3 replicates): 160.35
- Normalised counts FRK (FRK mRNA, single replicates): 165.09 and 158.87 and 157.09
- Average normalised counts FYN (FYN mRNA, average of 3 replicates): 5.563
- Normalised counts FYN (FYN mRNA, single replicates): 5.11 and 7.71 and 3.87
- Average normalised counts GAK (GAK mRNA, average of 3 replicates): 673.637
- Normalised counts GAK (GAK mRNA, single replicates): 641.39 and 690.54 and 688.98
- Average normalised counts GRK1 (GRK1 mRNA, average of 3 replicates): 10.12
- Normalised counts GRK1 (GRK1 mRNA, single replicates): 8.75 and 4.24 and 17.37
- Average normalised counts GRK4 (GRK4 mRNA, average of 3 replicates): 59.8967
- Normalised counts GRK4 (GRK4 mRNA, single replicates): 59.65 and 50.28 and 69.76
- Normalised counts GRK5 (GRK5 mRNA, single replicates): 18.75 and 22.48 and 22.13
- Average normalised counts GRK7 (GRK7 mRNA, average of 3 replicates): 1.957
- Normalised counts GRK7 (GRK7 mRNA, single replicates): 1 (2×) and 3.87
- Average normalised counts GSG2 (GSG2 mRNA, average of 3 replicates): 390.143
- Normalised counts GSG2 (GSG2 mRNA, single replicates): 395.97 and 394.3 and 380.16
- Average normalised counts GSK3A (GSK3A mRNA, average of 3 replicates): 3191.73
- Normalised counts GSK3A (GSK3A mRNA, single replicates): 3156.49 and 3192.52 and 3226.18
- Average normalised counts GSK3B (GSK3B mRNA, average of 3 replicates): 4035
- Normalised counts GSK3B (GSK3B mRNA, single replicates): 3944.57 and 4049.09 and 4111.34
- Average normalised counts GUCY2C (GUCY2C mRNA, average of 3 replicates): 1
- Normalised counts GUCY2C (GUCY2C mRNA, single replicates): 1
- Average normalised counts GUCY2D (GUCY2D mRNA, average of 3 replicates): 5.627
- Normalised counts GUCY2D (GUCY2D mRNA, single replicates): 6.02 and 8.58 and 2.28
- Average normalised counts GUCY2F (GUCY2F mRNA, average of 3 replicates): 1.693
- Normalised counts GUCY2F (GUCY2F mRNA, single replicates): 1 (2×) and 3.08
- Average normalised counts HCK (HCK mRNA, average of 3 replicates): 1.533
- Normalised counts HCK (HCK mRNA, single replicates): 1.48 and 1.63 and 1.49
- Average normalised counts HIPK1 (HIPK1 mRNA, average of 3 replicates): 582.127
